Values joined by “and” are separate entries in the source; they are usually repeats but may differ in a detail not shown here. Identical values can stand only once. “Also recorded” adds a separate entry of the source. Like-named read-outs stand apart in the source and are kept apart here. One block for each compound: values may come before it.
Columns and labels:
[1] = test system: ABC transporters (P-glycoprotein, P-gp) and BCRP; settings: in vitro; ref Vaidyanathan et al., 2016; cited from earlier work
[2] = target: T1, recombinant hTS (Homo sapiens, UniProt P04818); assay: hTS enzyme inhibition, spectrophotometric assay at 340 nm; type: biochemical; settings: for IC50: IC50 Recombinant hTS, 100 nM hTS, 50 µM mTHF, 110 µM dUMP, 60 min incubation at 37°C, standard error ±20%; for Ki: Ki (text of b40)
T1 construct: made in house; host or cells: E. coli BL21 (DE3), pQE80L plasmid

[3] = test system: HT29 cells; assay: Cell growth, crystal violet assay, HT29; type: cell-based, human; settings: for effect of SAINT-Protein transfection on cell survival, HT29: 72 h, Figure 5C
[4] = test system: HCT116 cells; assay: Cell growth, crystal violet assay, HCT116; type: cell-based; settings: Homo sapiens, HCT-116, 72 h, read-out: Cellular IC50 values HCT116
[5] = test system: ovarian and colorectal cancer cell lines (A2780, A2780/CP, IGROV-1, HT29, HCT116); assay: Cell growth, crystal violet assay, statements over several cancer cell lines; type: cell-based, human; settings: for IC50: Homo sapiens
[6] = test system: HCT116 cells; assay: Cell cycle analysis by flow cytometry (PI), HCT116; type: cell-based, human; settings: for sub-G0/G1, HCT116 cells, plus SAINT-Protein: 72 h, transfected with SAINT-Protein; for % of cells G0/G1, HCT116 cells / % of cells G2/M, HCT116 cells / % of cells S, HCT116 cells / % of cells sub G0/G1, HCT116 cells: 72 hr, E7 […], 5FU 5µM, with or without SAINT-Protein
Protocol: (§1) A slight opalescence indicates optimal mixing of the components. […] All experiments were conducted in duplicate. […] Quantitative measurements of the cell cycle phase distribution were performed by flow cytometry. Cells were then suspended in 0.5 mL of hypotonic fluorochrome solution (50 μg/mL PI, 0.1% sodium citrate, 0.1% Triton X-100). […] The percentages of nuclei in the different phases of the cell cycle (G0/G1, S and G2/M) were calculated using a DNA cell cycle analysis software (Cell-Fit, Becton Dickinson). A minimum of 10^4 cells was analyzed for each sample.

[7] = test system: A2780 cells; assay: Cell cycle analysis by flow cytometry (PI), A2780; type: cell-based, human; settings: 72 hr, Supplementary Figure S1
Protocol: as §1

[8] = test system: A2780/CP cells; assay: Cell growth, crystal violet assay, A2780/CP; type: cell-based, human
[9] = test system: human pancreatic cancer; settings: compared with 5-FU; ref Costantino et al., 2022; cited from earlier work
[10] = test system: A2780 cells; assay: Cell growth, crystal violet assay, A2780; settings: for IC50: Homo sapiens, A2780, 72 h
[11] = test system: IGROV-1 cells; assay: cells; type: cell-based; settings: Homo sapiens, IGROV-1, 72 h, read-out: Cellular IC50 values IGROV-1, 72 h-treatment, compound alone
[12] = test system: P-gp; settings: co-treatment with vincristine; ref Robey et al., 2004; Shafran et al., 2005; cited from earlier work
[13] = read-out: cancer cell growth inhibition potency (range over cell lines)

T1 sequence (P04818 whole entry): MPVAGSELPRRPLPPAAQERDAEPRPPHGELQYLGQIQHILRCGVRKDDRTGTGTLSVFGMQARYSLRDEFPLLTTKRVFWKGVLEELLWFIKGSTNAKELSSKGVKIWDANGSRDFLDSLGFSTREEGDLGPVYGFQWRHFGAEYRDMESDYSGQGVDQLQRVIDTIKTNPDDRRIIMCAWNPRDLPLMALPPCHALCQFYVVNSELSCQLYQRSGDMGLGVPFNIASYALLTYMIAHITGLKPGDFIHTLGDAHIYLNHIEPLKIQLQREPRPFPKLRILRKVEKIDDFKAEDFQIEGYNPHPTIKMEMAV

Structure (SMILES): COc1cc2c(cc1OC)CN(CCc1ccc(NC(=O)c3cccc4c(=O)c5cccc(OC)c5[nH]c34)cc1)CC2 [Elacridar, N-[4-[2-(6,7-dimethoxy-3,4-dihydro-1H-isoquinolin-2-yl)ethyl]phenyl]-5-methoxy-9-oxo-10H-acridine-4-carbox amide]
concentration reversing multidrug resistance [1]: 20 to 100 nM

Structure (SMILES): O=C(CSc1ccc([N+](=O)[O-])cc1)Nc1ccc(C(=O)O)cc1 [Compound E1]
IC50 [2]: 8 µM and 8.2 µM | IC50 ([3]; Homo sapiens, HT-29, 72 h, read-out: Cellular IC50 values HT29): > 100 µM | IC50 [4]: > 100 µM | cellular activity at 100 µM ([5]; 100 µM, five cancer cell lines of Table 1): no observed cellular activity | IC50 ([5]; read-out: IC50 with SAINT-Protein, OC cell lines): 20 to 40 µM | effect of SAINT-Protein transfection on cytotoxic activity, tested cell lines ([5]; with SAINT-Protein versus compound alone): benefits considerably; also recorded: showed cytotoxic activity when associated with the SAINT-Protein

IC50 [2]: 0.8 µM
Structure (SMILES): O=c1[nH]c(=O)n([C@H]2C[C@H](O)[C@@H](COP(=O)(O)O)O2)cc1F [FdUMP, 5-fluorodeoxyuridine-5′-monophosphate, reference compound]

Structure (SMILES): O=c1[nH]cc(F)c(=O)[nH]1 [Compound 5-FU, 5-fluorouracil, reference compound]
sub-G0/G1, HCT116 cells, plus SAINT-Protein [6]: about 40% | % of cells G0/G1, HCT116 cells [6]: 54.45% | % of cells G2/M, HCT116 cells [6]: 14.75% | % of cells S, HCT116 cells [6]: 12.55% | % of cells sub G0/G1, HCT116 cells [6]: 15.1% | effect of SAINT-Protein transfection on sub-G0/G1 phase, A2780 cells [7]: did not benefit from SAINT-Protein transfection

Structure (SMILES): CS(=O)(=O)c1ccc2nc(NC(=O)C(Sc3ccc([N+](=O)[O-])cc3)c3ccccc3)sc2c1 (stereo not shown) [Compound E7, phenyl-2-(4-nitrophenylthio)-N-(6-methanesulfonylbenzothiazol-2-yl)acetamide]
Ki [2]: 7 µM | IC50 ([8]; Homo sapiens, A2780C/P, 72 h, read-out: IC50 A2780/CP cells, without SAINT-Protein (Figure 4A)): 15.3 ± 5 µM | SQ with SAINT-Protein, A2780/CP cells, 5 μM ([8]; compound 5 μM + SAINT-Protein): 1.54±0.45 | SQ with SAINT-Protein, A2780/CP cells, 12 μM ([8]; compound 12 μM + SAINT-Protein): 1.34±0.1 | SQ with SAINT-Protein, A2780/CP cells, 25 μM ([8]; compound 25 μM + SAINT-Protein): 1.15±0.03 | effect of SAINT-Protein transfection on cell survival, HT29 [3]: more favoured by the presence of SAINT-Protein | IC50 [5, 13]: 10 to 37 µM | sub-G0/G1, HCT116 cells, plus SAINT-Protein [6]: ~60% | % of cells G0/G1, HCT116 cells [6]: 58.15% | % of cells G2/M, HCT116 cells [6]: 11.67% | % of cells S, HCT116 cells [6]: 10.65% | % of cells sub G0/G1, HCT116 cells [6]: 17.53% | effect of SAINT-Protein transfection on sub-G0/G1 phase, A2780 cells [7]: significantly increased the percentage of cells in the sub-G0/G1 phase | anticancer profile in mouse model [9]: superior to that of 5-FU | IC50 ([10]; read-out: IC50 A2780 cells, with SAINT-Protein (Figure 4A)): 5.6 µM | IC50 ([10]; read-out: IC50 A2780 cells, without SAINT-Protein (Figure 4A)): 10.9 µM | SQ with SAINT-Protein, A2780 cells, 5 μM ([10]; compound 5 μM + SAINT-Protein): 1.10±0.05 | SQ with SAINT-Protein, A2780 cells, 12 μM ([10]; compound 12 μM + SAINT-Protein): 1.07±0.01 | SQ with SAINT-Protein, A2780 cells, 25 μM ([10]; compound 25 μM + SAINT-Protein): 0.90±0.1

Structure (SMILES): NC(=O)c1ccc(NC(=O)C(Sc2ccc([N+](=O)[O-])cc2)c2ccccc2)cc1 (stereo not shown) [Compound E5, 2-Phenyl-2-(4-nitrophenylthio)-N-(4-carboxamidophenyl)acetamide]
Ki [2]: 40 µM | IC50 [11]: 69.9 ± 8 µM | effect of SAINT-Protein transfection on cell survival, HT29 [3]: no significant effect | interaction with elacridar (synergism quotient analysis) ([5]; 200 nM elacridar 2 h pre-treatment, 72 h, A2780, IGROV-1, HT29): synergized by elacridar in all cell lines tested | effect of SAINT-Protein transfection on cell killing, A2780 and A2780/CP ([5]; A2780 and A2780/CP, 72 h, Figure 5A, B): not significantly enhanced | IC50 [5, 13]: 25 to 70 µM

Structure (SMILES): COc1cc2c(cc1OC)CN(CCc1ccc(NC(=O)c3cc(OC)c(OC)cc3NC(=O)c3cnc4ccccc4c3)cc1)CC2 [Tariquidar, 3-Quinolinecarboxamide, N-[2-[[[4-[2-(3,4-dihydro-6,7-dimethoxy-2(1H)-isoquinolinyl)ethyl]phenyl]amino]carbonyl]-4,5-dimethoxyphenyl]-]
concentration giving complete reversal of resistance [12]: 25 to 80 nM
